The first data set deals with T1, GLYT1 subtype of the glycine transporter (Rattus norvegicus, UniProt P28572).
T1 construct: C6 glioma cell expressing GLYT1 subtype of the glycine transporter; host or cells: C6 glioma cells
T1 sequence (P28572 1-638): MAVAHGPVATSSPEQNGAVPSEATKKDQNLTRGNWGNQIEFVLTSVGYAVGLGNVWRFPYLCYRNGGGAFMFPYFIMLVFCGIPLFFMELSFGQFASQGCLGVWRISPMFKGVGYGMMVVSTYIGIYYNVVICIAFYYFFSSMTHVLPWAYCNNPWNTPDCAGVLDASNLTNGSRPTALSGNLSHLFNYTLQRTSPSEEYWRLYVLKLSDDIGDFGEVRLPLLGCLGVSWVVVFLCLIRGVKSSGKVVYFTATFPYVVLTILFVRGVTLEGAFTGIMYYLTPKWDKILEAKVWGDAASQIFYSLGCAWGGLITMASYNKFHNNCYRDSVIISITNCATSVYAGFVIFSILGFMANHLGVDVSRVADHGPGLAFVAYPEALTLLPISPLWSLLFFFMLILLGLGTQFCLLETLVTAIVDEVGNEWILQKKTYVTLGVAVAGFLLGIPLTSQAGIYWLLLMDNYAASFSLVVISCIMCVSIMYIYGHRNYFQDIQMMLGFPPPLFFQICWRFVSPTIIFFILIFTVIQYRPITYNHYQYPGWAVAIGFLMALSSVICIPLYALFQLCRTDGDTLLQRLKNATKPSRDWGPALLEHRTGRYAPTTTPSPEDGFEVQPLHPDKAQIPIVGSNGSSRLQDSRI
The data set is described as follows: [3H]-glycine uptake assay in C6 glioma cells (action of inhibiting glycine transporter). The format is cell-based. The following applies: 20 min at 37° C., read-out: GLYT-inhibiting activity IC50. The procedure:
1. Action of Inhibiting Glycine Transporter
C6 glioma cell (American Type Culture Collection) was cultured in DMEM containing 10% fetal bovine serum, 100 units/ml penicillin G and 0.1 mg/ml streptomycin sulfate in a CO2 incubator under conditions of 5% CO2 and 37° C.
[^3H]-glycine uptake was performed by the method of Gomeza, et al.
C6 glioma cells were plated out at a concentration of 2×10^4 cells/well in a 96-well plate (Culturplate, Packard Co.), for culturing for 2 days. Subsequently, [^3H]-glycine uptake was tested. The cell was rinsed once in a buffer (150 mM NaCl, 5 mM KCl, 1 mM CaCl2, 1 mM MgCl2, 10 mM glucose, 5 mM L-alanine, 10 mM Hepes-Na, pH 7.4), followed by subsequent addition of the buffer, for incubation at 37° C. for 10 minutes.
After incubation, the buffer was exchanged to a reaction buffer including [^3H]-glycine (about 0.2 μM, 41 Ci/mmol, New England Nuclear)and a compound to be assessed, for incubation at 37° C. for another 20 minutes. After 20-min reaction, the reaction mixture was rinsed in ice-cold PBS (phosphate buffered saline). The cell was dissolved in 0.1N NaOH solution, to assay the radioactivity incorporated with a liquid scintillation counter. The specific incorporation was defined as a portion substituted with 3 mM sarcosine in the total incorporation. The test compound was assessed by determining the incorporation-inhibiting ratio of the specific incorporation.
Broadly, the IC50 is the point on the concentration scale where inhibition reaches its midpoint. For `CC(C)c1nnc(-c2ccc(-c3ccccc3)nc2)n1-c1c(F)cccc1F` [Example 1, 5-[4-(2,6-Difluorophenyl)-5-isopropyl-4H-triazol-3-yl]-2-phenylpyridine], the IC50 is 140 nM.
Still for that read-out and setting: then `COCCCc1nnc(-c2ccc(-c3ccccc3)nc2)n1-c1cccc(C#N)c1C` [Example 5, 3-[3-(3-Methoxypropyl)-5-(6-phenylpyridin-3-yl)-4H-1,2,4-triazol-4-yl]-2-methylbenzonitrile], with 410 nM; and `Cc1nnc(-c2ccc(-c3cccs3)cc2)n1-c1ccccc1F` [Example 10, 4-(2-Fluorophenyl)-3-methyl-5-(4-thiophen-2-ylphenyl)-4H-1,2,4-triazole], with 200 nM.
Same read-out and setting: for `CCc1nnc(-c2ccc(-c3ccccc3)cc2)n1-c1ccccc1Oc1cccnc1` [Example 279] the value was 4600 nM; for `CCc1nnc(-c2ccc(-c3ccccc3)cc2)n1-c1ccccc1OC` [Compound 3, 3-(biphenyl-4-yl)-5-ethyl-4-(2-methoxyphenyl)-4H-1,2,4-triazole, reference compound], 350 nM; for `Fc1ccccc1-n1c(CN2CCc3sccc3C2)nnc1-c1ccc(-c2ccccc2)cc1` [Example 202], 1600 nM.
Consider `c1ccc(-c2ccc(-c3nnc(-c4ccco4)n3-c3ccccc3)cc2)cc1` [Compound 2, 3-(biphenyl-4-yl)-5-(furan-2-yl)-4-phenyl-4H-1,2,4-triazole, reference compound], for which the IC50 was 4600 nM.
Still for that read-out and setting: then `CN(CC1CCCO1)c1nnc(-c2ccc(-c3ccccc3)cc2)n1-c1ccccc1F` (stereo not shown) [Example 236], with 940 nM; and `Cc1nnc(-c2ccc(-c3ccccc3)cc2)n1-c1ccccc1[N+](=O)[O-]` [Example 256], with 86 nM; and `CC(C)c1nnc(-c2cnc(-c3ccccc3)c(Cl)c2)n1-c1c(F)cccc1F` [Example 112], with 1000 nM.
For `COCCN(C)c1nnc(-c2ccc(-c3ccccc3)nc2)n1-c1ccccc1C#N` [Example 8, 2-{3-[N-(2-Methoxyethyl)-N-methylamino]-5-(6-phenylpyridin-3-yl)-4H-1,2,4-triazol-4-yl}benzonitrile], the IC50 was 250 nM.
The same measure, in the same setting: for `COCCN(C)c1nnc(-c2ccc(-c3ccccc3)nc2)n1-c1cccc2nonc12` [Example 9, 4-(2,1,3-Benzooxadiazol-4-yl)-N-(2-methoxyethyl)-N-methyl-5-(6-phenylpyridin-3-yl)-4H-1,2,4-triazol-3-ylamine] the value was 330 nM; for `CC(C)c1nnc(-c2ccc(-c3ccccc3)nc2)n1-c1cccc2nonc12` [Example 2, 4-[3-Isopropyl 5-(6-phenylpyridin-3-yl)-4H-1,2,4-triazol-4-yl]-2,1,3-benzooxadiazole], 100 nM; for `CN(CCCSc1nnc(-c2ccc(-c3ccccc3)cc2)n1-c1ccccc1F)CC(=O)O` [Example 157], 1500 nM.
Same read-out and setting: for `COc1ccccc1-n1c(C)nnc1-c1ccc(-c2ccccc2)cc1` [Compound 1, 3-(biphenyl-4-yl)-4-(2-methoxyphenyl)-5-methyl-4H-1,2,4-triazole, reference compound] the value was 1000 nM.

Tested on in the next data set: not given
Assay: not given
Conditions: not given
One may read the melting point as the temperature of the solid-liquid transition. On to `CSc1nnc(-c2ccc(-c3ccccc3)cc2)n1-c1ccccc1F` [Example 12, 3-Biphenyl-4-yl-4-(2-fluorophenyl)-5-methylsulfanyl-4H-1,2,4-triazole], for which the melting point is 199 to 200 °C.

The values above are taken from patent US7034047B2, “Triazole derivative” (Astellas Pharma, Inc., priority 2000, dated 2006).
